Results as given in publication PMC9065348 (Frontiers in Pharmacology, 2022).
Like-named read-outs stand apart in the source and are kept apart here. One block for each molecule: values may come before it.

Key:
P-gp [1] = system: P-gp; design: method as in Wan et al. (2010); conditions: HepG2; ref Wan et al. (2010); cited from earlier work
CYP3A4 [2] = target: CYP3A4 (Homo sapiens, UniProt P08684); design: method as in Wan et al. (2010); conditions: HepG2; ref Wan et al. (2010); cited from earlier work
Chain of CYP3A4 (Homo sapiens, UniProt P08684) (P08684 whole entry): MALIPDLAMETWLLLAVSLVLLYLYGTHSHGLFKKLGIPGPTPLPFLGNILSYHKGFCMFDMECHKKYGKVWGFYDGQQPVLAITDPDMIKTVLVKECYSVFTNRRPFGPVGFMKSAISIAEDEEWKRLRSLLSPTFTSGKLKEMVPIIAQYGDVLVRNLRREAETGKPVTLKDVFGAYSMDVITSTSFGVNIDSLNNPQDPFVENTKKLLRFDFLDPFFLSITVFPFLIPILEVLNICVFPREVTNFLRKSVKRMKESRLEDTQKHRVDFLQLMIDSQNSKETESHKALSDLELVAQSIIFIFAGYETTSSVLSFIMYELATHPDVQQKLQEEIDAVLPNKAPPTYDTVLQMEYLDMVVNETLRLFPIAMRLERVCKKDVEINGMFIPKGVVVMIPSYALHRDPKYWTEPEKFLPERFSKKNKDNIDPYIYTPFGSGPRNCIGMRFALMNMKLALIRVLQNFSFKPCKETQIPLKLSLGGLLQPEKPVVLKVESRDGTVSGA

P-gp [3] = conditions: Sprague-Dawley rats; ref Qin et al. (2013); cited from earlier work
CYP3A4 [4] = conditions: Sprague-Dawley rats; ref Qin et al. (2013); cited from earlier work
[5] = Pharmacokinetics of LOS and EXP3174 in the hypertension rat model (LC-MS); format: in vivo, Wistar rats; conditions: hypertensive rats (L-NAME); for AUC(0-inf) / AUC(0-t) / Cmax / MRT / Tmax / half-life: Wistar, rat, plasma, po, 10 mg/kg/day
Description: All samples were centrifuged at 3,000 rpm for 10 min, and the upper plasma was collected for Liquid Chromatography Mass Spectrometry (LC-MS) analysis. The LOS and EXP3174 in rat serum were quantitatively determined by a validated LC-MS method. The LC-MS system contained a Q/Exactive Quadrupole/Electrostatic Field Track Well High Resolution Mass Spectrometer (Thermo Fisher Scientific, Waltham, MA, United States) and a Dionex Ultimate 3,000 High-pressure liquid chromatography (Dionex, Subsidiary, CA, United States) system equipped with an electro-spray ionization source. […] The mobile phase included 0.1% formic acid aqueous solution (C) and acetonitrile (D) at a flow rate of 0.3 ml/min. The proportion of phase B in the mobile phase was adjusted from 40 to 5% at 0-2 min, 5% at 2-4 min, 40% at 4-5 min. The parameters of mass spectrometry for each analyte were shown in Supplementary Figure S1 . The collected data were analyzed through Xcalibur 4.1 software. The serum drug concentration data in each sample were obtained by calculation. The pharmacokinetic parameters corresponding to each rat were calculated using the “non-compartmental model” of the “PK solution 2.0TM (Summit Research Services, United States)” pharmacokinetic software. The half-life (t 1/2 ), peak drug concentration (C max), peak time (T max), the area under the plasma concentration-time curve (AUC) from time zero to the time of the last measurable plasma concentration (AUC 0-t ), AUC from time zero to infinity (AUC 0-∞ ), mean residence time (MRT), clearance (CL), apparent volume of distribution (V d ), and relative bioavailability (Frel) were calculated.

[6] = system: hypertension rat model established with L-NAME; design: method as in Ahad et al., 2020b; conditions: within 2 h following 10 mg kg^−1 LOS; rat model after 2 weeks L-NAME; ref Ahad et al., 2020b; cited from earlier work
CYP2C9 = test: Western blot of rat liver tissue, CYP2C9 protein expression; format: in vivo; conditions: liver of hypertensive rats; comparison between all groups; p > 0.05
Description: The immunoreactive bands were detected by chemiluminescence.

[7] = Pharmacokinetics of LOS and EXP3174 in non-hypertensive Wistar rats (LC-MS); format: in vivo; conditions: Wistar rats without L-NAME; for AUC(0-inf) / AUC(0-t) / Cmax / MRT / Tmax / half-life: rat, serum, po
Description: All groups were treated for 2 weeks and the blood collection time and methods of serum management were the same as those mentioned above. The LOS and EXP3174 in rat serum were quantitatively determined by a validated LC-MS method. The LC-MS system contained a Q/Exactive Quadrupole/Electrostatic Field Track Well High Resolution Mass Spectrometer (Thermo Fisher Scientific, Waltham, MA, United States) and a Dionex Ultimate 3,000 High-pressure liquid chromatography (Dionex, Subsidiary, CA, United States) system equipped with an electro-spray ionization source. […] The mobile phase included 0.1% formic acid aqueous solution (C) and acetonitrile (D) at a flow rate of 0.3 ml/min. The proportion of phase B in the mobile phase was adjusted from 40 to 5% at 0–2 min, 5% at 2–4 min, 40% at 4–5 min. The parameters of mass spectrometry for each analyte were shown in Supplementary Figure S1 . The collected data were analyzed through Xcalibur 4.1 software. The serum drug concentration data in each sample were obtained by calculation. The pharmacokinetic parameters corresponding to each rat were calculated using the “non-compartmental model” of the “PK solution 2.0TM (Summit Research Services, United States)” pharmacokinetic software. The half-life (t 1/2 ), peak drug concentration (C max), peak time (T max), the area under the plasma concentration-time curve (AUC) from time zero to the time of the last measurable plasma concentration (AUC 0-t ), AUC from time zero to infinity (AUC 0-∞ ), mean residence time (MRT), clearance (CL), apparent volume of distribution (V d ), and relative bioavailability (Frel) were calculated.

[8] = cited from earlier work
[9] = system: hypertension rat model established by L-NAME; test: Antihypertensive efficacy (tail artery blood pressure) in L-NAME hypertension rat model; format: in vivo, Wistar rats; conditions: vs model group; 2 weeks treatment; SMI 6 ml/kg/d tail vein (SMI-H), LOS 10 mg/kg/d intragastric
Description: A total of 48 Wistar rats were treated with L-NAME (60 mg/kg·d^-1) intragastrically for 4 weeks ([[…] al., 2003]; [[…] et al., 2002]; [Ahad et al., 2020a]). Systolic blood pressure (SBP) ≥140 mmHg was considered to be a successful hypertension model and was used to maintain L-NAME treatment until animal death. The blood pressure measurement method was performed as described in previous literature studies and the blood pressure of each rat was determined by the average of 5 measurements by a non-invasive rat tail sphygmomanometer (BP-2006A, Beijing Softron Biotechnology Co., Ltd.) ([Gillis et al., 2020]; [Dias et al., 2021]). This experimental protocol was approved by the Animal Care and Use Committee of Shanghai University of Traditional Chinese Medicine. A total of 36 hypertensive rats and 6 normal rats were included in this experiment. […] A total of 6 normal rats were assigned to a blank group without any treatment. Following the treatment of the rats for 2 weeks, the blood pressure of their tail artery was measured.

[10] = design: method as in Sica et al., 2005; Burnier and Wuerzner, 2011; conditions: ref Sica et al., 2005; Burnier and Wuerzner, 2011; cited from earlier work
CYP3A4 [11] = system: CYP3A4; design: method as in Li et al. (2012); conditions: Rat hepatic microsomes; ref Li et al. (2012); cited from earlier work
[12] = LOS 10 mg/kg/d ig + SMI 2 ml/kg/d tail vein (SMI-L+LOS group)
[13] = LOS 10 mg/kg/d ig + SMI 4 ml/kg/d tail vein (SMI-M+LOS group)
[14] = LOS 10 mg/kg/d ig + SMI 6 ml/kg/d tail vein (SMI-H+LOS group)
[15] = LOS 10 mg/kg/d ig alone (LOS group)
[16] = LOS 10 mg/kg/d ig + SMI 6 ml/kg/d tail vein (BLANK + SMI-H+LOS group)
[17] = LOS 10 mg/kg/d ig alone (BLANK + LOS group)

SMILES: COc1cc2c(c(OC)c1OC)-c1c(cc(OC)c(OC)c1OC)C[C@](C)(O)[C@@H](C)C2 [schisandrol A]
- Effects on P-Gp (P-gp [1]): Inhibition
- Effects on CYP3A4 (CYP3A4 [2]): Inhibition
- Effects on P-Gp (P-gp [3]): Inhibition
- Effects on CYP3A4 (CYP3A4 [4]): Inhibition

- AUC(0-inf) [5, 12]: 1210 ng·h/mL
- AUC(0-t) [5, 12]: 1110 ng·h/mL
- Cmax [5, 12]: 125 ± 53.6 ng/mL
- MRT [5, 12]: 8.54 ± 1.8 h
- Tmax [5, 12]: 2.2 ± 0.84 h
- half-life [5, 12]: 6.74 ± 0.64 h
- AUC(0-inf) [5, 13]: 1430 ng·h/mL
- AUC(0-t) [5, 13]: 1250 ng·h/mL
- Cmax [5, 13]: 132 ± 35 ng/mL
- MRT [5, 13]: 11.3 ± 2.22 h
- Tmax [5, 13]: 1.5 ± 0.55 h
- half-life [5, 13]: 8.41 ± 1.43 h
- AUC(0-inf) [5, 14]: 1420 ng·h/mL
- AUC(0-t) [5, 14]: 1240 ng·h/mL
- Cmax [5, 14]: 156 ± 64.1 ng/mL
- MRT [5, 14]: 12.1 ± 1.02 h
- Tmax [5, 14]: 2.33 ± 0.52 h
- half-life [5, 14]: 9.92 ± 0.96 h
- AUC(0-inf) [5, 15]: 841 ± 232 ng·h/mL
- AUC(0-t) [5, 15]: 787 ± 213 ng·h/mL
- Cmax [5, 15]: 112 ± 41.7 ng/mL
- MRT [5, 15]: 8.18 ± 0.89 h
- Tmax [5, 15]: 2 ± 0.89 h
- half-life [5, 15]: 6.19 ± 0.43 h
- CL [5, 12]: 27,497.47 ± 14,702.73 ml/h/kg
- Vd [5, 12]: 264,405.76 ± 142,122.69 ml/kg
- CL [5, 13]: 17,964.40 ± 3,185.66 ml/h/kg
- Vd [5, 13]: 217,016.60 ± 45,076.20 ml/kg
- CL [5, 14]: 19,127.96 ± 5,549.27 ml/h/kg
- Vd [5, 14]: 277,463.55 ± 98,140.99 ml/kg
- CL [5, 15]: 32,042.39 ± 10,551.59 ml/h/kg
- Vd [5, 15]: 282,441.65 ± 73,729.85 ml/kg
- increase of AUC 0-t compared with LOS group ([5]; SMI-H + LOS group (SMI 6 ml/kg/d)): 58.1%
- CYP2C9 expression levels (CYP2C9): no significant differences
- CL [7, 16]: 5,327.27 ± 1,010.94 ml/h/kg
- Vd [7, 16]: 67,493.75 ± 17,745.97 ml/kg
- CL [7, 17]: 10,392.48 ± 1,296.50 ml/h/kg
- Vd [7, 17]: 90,573.23 ± 13,394.06 ml/kg
- AUC(0-inf) [7, 17]: 975 ± 121 ng·h/mL
- AUC(0-t) [7, 17]: 911 ± 115 ng·h/mL
- Cmax [7, 17]: 108 ± 6.26 ng/mL
- MRT [7, 17]: 8.6 ± 0.54 h
- Tmax [7, 17]: 1.67 ± 0.52 h
- half-life [7, 17]: 6.03 ± 0.19 h
SMILES: CCCCc1nc(Cl)c(CO)n1Cc1ccc(-c2ccccc2-c2nn[nH]n2)cc1 [LOS, losartan potassium]
- decrease in SBP [6]: 14.7%
- increase of AUC 0-t of LOS ([8]; with Ginkgo leaf tablets, ref Dong et al., 2018): 70%
- increase of AUC 0-t of LOS ([8]; with Glimepirea, ref Chen et al., 2015): 11.18%
- increase of AUC of LOS ([8]; with licochalcon A, ref Choi et al., 2013): 33.38%
- decrease in DBP [9]: 12.14%
- decrease in MAP [9]: 11.92%
- decrease in SBP [9]: 6.32%

- AUC(0-inf) [5, 12]: 1280 ng·h/mL
- AUC(0-t) [5, 12]: 1180 ng·h/mL
- Cmax [5, 12]: 133 ± 42.8 ng/mL
- MRT [5, 12]: 9.5 ± 1.8 h
- Tmax [5, 12]: 4.8 ± 1.1 h
- half-life [5, 12]: 6.67 ± 1.34 h
- AUC(0-inf) [5, 13]: 1500 ng·h/mL
- AUC(0-t) [5, 13]: 1380 ng·h/mL
- Cmax [5, 13]: 123 ± 44.6 ng/mL
- MRT [5, 13]: 11.4 ± 1.62 h
- Tmax [5, 13]: 5.33 ± 1.03 h
- half-life [5, 13]: 6.59 ± 1.44 h
- AUC(0-inf) [5, 14]: 1380 ng·h/mL
- Cmax [5, 14]: 81.2 ± 8.14 ng/mL
- MRT [5, 14]: 13.3 ± 2.66 h
- Tmax [5, 14]: 6 ± 1.26 h
- half-life [5, 14]: 7.31 ± 1.62 h
- AUC(0-inf) [5, 15]: 1300 ng·h/mL
- AUC(0-t) [5, 15]: 1160 ng·h/mL
- Cmax [5, 15]: 119 ± 36.4 ng/mL
- MRT [5, 15]: 11.2 ± 2.34 h
- Tmax [5, 15]: 4.33 ± 0.82 h
- half-life [5, 15]: 6.76 ± 1.45 h
- CL [5, 12]: 23,408.16 ± 11,602.26 ml/h/kg
- Vd [5, 12]: 226,676.52 ± 129,635.61 ml/kg
- CL [5, 13]: 17,618.36 ± 4346.02 ml/h/kg
- Vd [5, 13]: 159,469.35 ± 65,037.84 ml/kg
- CL [5, 14]: 18,577.68 ± 3,249.85 ml/h/kg
- Vd [5, 14]: 188,473.60 ± 36,260.16 ml/kg
- CL [5, 15]: 19,842.49 ± 3,602.55 ml/h/kg
- Vd [5, 15]: 175,713.60 ± 57,295.84 ml/kg
- AUC(0-inf) [7, 17]: 1170 ng·h/mL
- AUC(0-t) [7, 17]: 1020 ng·h/mL
- Cmax [7, 17]: 115 ± 12.1 ng/mL
- MRT [7, 17]: 9.77 ± 0.26 h
- Tmax [7, 17]: 5.33 ± 1.03 h
- half-life [7, 17]: 6.5 ± 1.52 h
SMILES: CCCCc1nc(Cl)c(C(=O)O)n1Cc1ccc(-c2ccccc2-c2nn[nH]n2)cc1 [EXP3174, losartan carboxylic acid]
- antihypertensive potency relative to losartan [10]: 10–40 times

SMILES: COc1cc2c(c(OC)c1OC)-c1c(cc(OC)c(OC)c1OC)C[C@H](C)[C@H](C)C2 [Schisandrin A]
- Effects on CYP3A4 (CYP3A4 [11]): Inhibition
